# Data published in patent US9884043B2, “RORgammaT inhibitors” (Merck Sharp & Dohme Corp., priority 2011, dated 2018).
# Target: T1, HIS-tagged RORγ-LBD (Homo sapiens, UniProt P51449)
# T1 construct: HIS-tagged RORγ-LBD was recombinantly expressed in SF9 cells using a baculovirus expression system; made in house; host or cells: SF9 cells, baculovirus; crude lysate used
# T1 sequence (P51449 269-508 limits assumed): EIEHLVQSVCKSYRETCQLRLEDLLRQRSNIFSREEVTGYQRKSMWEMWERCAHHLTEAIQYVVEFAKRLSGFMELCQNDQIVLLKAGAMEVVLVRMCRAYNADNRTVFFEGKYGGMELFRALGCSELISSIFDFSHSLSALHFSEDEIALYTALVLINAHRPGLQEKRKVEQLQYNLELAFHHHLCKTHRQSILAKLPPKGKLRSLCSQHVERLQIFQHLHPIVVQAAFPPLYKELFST
# Test: TR-FRET assay (Protocol C), purified RORγ-LBD / biotinylated SRC1 LXXLL peptide
# Type: biochemical
# Conditions: purified RORγ-LBD 3 nM, SRC1 peptide 100 nM, overnight at 4° C.
# Excerpt: Activation of RORgammaT activity can be measured using e.g. biochemical TR-FRET assay. In such an assay, interaction of cofactor-derived peptides with human RORgammaT-Ligand Binding Domain (LBD) can be measured. The TR-FRET technique is a sensitive biochemical proximity assay that will give information concerning the interaction of a ligand with the LBD, in the presence of cofactor derived peptides (Zhou et al., Methods 25:54-61, 2001).
# To identify novel antagonists of RORgammaT, an assay was developed which employs the interaction of RORgammaT with its co-activator peptide SRC1_2. This peptide mimics the recruitment of co-activators to RORgammaT through its interaction with the LXXLL (SEQ ID NO:2) (eg NR box) motifs (Xie et al., J. Immunol. 175: 3800-09, 2005; Kurebayashi et al., Biochem. Biophys. Res. Commun. 315: 919-27, 2004; Jin et al., Mol. Endocrinology 24:923-29, 2010). The assay was run following three slightly different protocols, i.e. Protocol A, Protocol B, and Protocol C, which are described below.
# TR-Fret Assay (Protocol C)
# HIS-tagged RORγ-LBD protein was expressed in SF9 cells using a baculovirus expression system. The RORγ-LBD protein was purified by glutathione sepharose chromatography. Separately, SF9 cells not expressing any recombinant protein were lysed and the lysate was added to the purified RORγ-LBD at 0.25 μl lysate (from 10,000 SF9 cells)/nM purified protein. The mixture was then diluted in assay buffer (50 mM Tris pH 7.0, 50 mM KCl, 1 mM EDTA, 0.1 mM DTT) to obtain RORγ-LBD final concentration of 3 nM in 384-well assay plate.
# Compounds to be tested were injected to the assay plate using Acoustic Droplet Ejection technology by Echo 550 liquid handler (Labcyte, Calif.). A stock of biotinylated-LXXLL (SEQ ID NO:2) peptide from coactivator SRC1 (Biotin-[…]) (SEQ ID NO: 1) was prepared in assay buffer and added to each well (100 nM final concentration). A solution of Europium tagged anti-HIS antibody (1.25 nM final concentration) and APC conjugated streptavidin (8 nM final concentration) were also added to each well.
# The final assay mixture was incubated for overnight at 4° C., and the fluorescence signal was measured on an Envision plate reader: (Excitation filter=340 nm; APC emission=665 nm; Europium emission=615 nm; dichroic mirror=D400/D630; delay time=100 μs, integration time=200 μs). IC50 values for test compounds were calculated from the quotient of the fluorescence signal at 665 nm divided by the fluorescence signal at 615 nm.
row,IC50 [µM],SMILES
1,> 10,"O=C(O)c1cc(-c2nn(C(=O)c3c(Cl)cccc3C(F)(F)F)c3cccnc23)ccc1O [Example 24AL, 5-(1-(2-chloro-6-(trifluoromethyl)-benzoyl)-1H-pyrazolo[4,3-b]pyridin-3-yl)-2-hydroxybenzoic acid]"
2,< 0.05,"O=C(O)c1ccc(-c2nn(C(=O)c3c(Cl)cccc3C(F)(F)F)c3ccccc23)c(Cl)c1 [Example 24AS, 3-chloro-4-(1-(2-chloro-6-(trifluoromethyl)-benzoyl)-1H-indazol-3-yl)benzoic acid]"
3,< 0.05,"COc1cccc(F)c1C(=O)n1nc(-c2ccc(C(=O)O)cc2F)c2ccccc21 [Example 24AU, sodium 3-fluoro-4-(1-(2-fluoro-6-methoxybenzoyl)-1H-indazol-3-yl)benzoate]"
4,0.05 to 0.5,"COc1cccc(F)c1C(=O)n1nc(-c2ccc(C(=O)O)cc2)c2cccc(F)c21 [Example 24AV, 4-(7-fluoro-1-(2-fluoro-6-methoxybenzoyl)-1H-indazol-3-yl)benzoic acid]"
5,0.05 to 0.5,"COc1cccc(F)c1C(=O)n1nc(-c2ccc(C(=O)O)cc2F)c2cccc(F)c21 [Example 24AW, 3-fluoro-4-(7-fluoro-1-(2-fluoro-6-methoxybenzoyl)-1H-indazol-3-yl)benzoic acid]"
6,0.05 to 0.5,"COCc1ccc2c(-c3ccc(C(=O)O)cc3)nn(C(=O)c3c(Cl)cccc3C(F)(F)F)c2c1 [Example 24BG, 4-(1-(2-chloro-6-(trifluoromethyl)-benzoyl)-6-(methoxymethyl)-1H-indazol-3-yl)benzoic acid]"
7,< 0.05,"COCCCNC(=O)c1ccc2c(-c3ccc(C(=O)O)cc3F)nn(C(=O)c3c(Cl)cccc3C(F)(F)F)c2c1 [Example 25N, 4-(1-(2-chloro-6-(trifluoromethyl)benzoyl)-6-(3-methoxypropyl-carbamoyl)-1H-indazol-3-yl)-3-fluorobenzoic acid]"
8,< 0.05,"COCCN(C)C(=O)c1ccc2c(-c3ccc(C(=O)O)cc3F)nn(C(=O)c3c(Cl)cccc3C(F)(F)F)c2c1 [Example 25S, 4-(1-(2-chloro-6-(trifluoromethyl)benzoyl)-6-((2-methoxyethyl) (methyl)carbamoyl)-1H-indazol-3-yl)-3-fluorobenzoic acid]"

# Target: T2, 6His(GST)RORgamma-LBD (Homo sapiens, UniProt P51449)
# T2 construct: the applied RORgamma-LBD contains a 6-His and GST tag; GST (N); made in house; host or cells: baculovirus-infected Sf-21 insect cells
# T2 sequence (P51449 269-508 limits assumed): T1 sequence (P51449 269-508 limits assumed)
# Test: TR-FRET assay (Protocol A), RORgamma-LBD / SRC1_2 co-activator peptide interaction
# Type: biochemical
# Conditions: SRC1_2 peptide 0.1 μM, RORgamma-LBD 10 nM, overnight incubation at 4° C.
# Excerpt: Activation of RORgammaT activity can be measured using e.g. biochemical TR-FRET assay. In such an assay, interaction of cofactor-derived peptides with human RORgammaT-Ligand Binding Domain (LBD) can be measured.
# To identify novel antagonists of RORgammaT, an assay was developed which employs the interaction of RORgammaT with its co-activator peptide SRC1_2. […] The assay was run following three slightly different protocols, i.e. Protocol A, Protocol B, and Protocol C, which are described below.
# TR-FRET Assay (Protocol A)
# The 6His(GST)RORgamma-LBD was expressed and purified from baculovirus infected Sf-21 insect cells (Bac-to-BAC, Invitrogen) and purified using glutathione sepharose chromatography (GE healthcare). Biotin and His function as anchoring points for streptavidin-allophycocyanin (Strep-APC, Perkin Elmer, C130-100) and anti-His-Europium Cryptate (Perkin Elmer, AD0111), respectively. Since energy transfer between the streptavidin and His-coupled labels APC and europium cryptate can only take place when these labels are in close proximity, measurement of energy transfer in a mixture of biotinylated peptide, His-GR-LBD, streptavidin-APC and anti-His-Europium Cryptate will be indicative for RORy-LBD/peptide binding. […] Changes in peptide binding caused by dose-curves of compounds added to the reaction mixture (DMSO concentration 0.1%), can likewise be monitored.
row,EC50 [µM],SMILES
1,0.0759,"O=C(O)c1ccc(-c2nn(S(=O)(=O)c3cc(Cl)ccc3Cl)c3ccccc23)cc1 [Example 13C, 4-(1-(2,5-dichlorophenylsulfonyl)-1H-indazol-3-yl)benzoic acid]"
2,0.0525,"Cc1c(Cl)cccc1S(=O)(=O)n1nc(-c2ccc(C(=O)O)cc2)c2ccccc21 [Example 13D, 4-(1-(3-chloro-2-methylphenylsulfonyl)-1H-indazol-3-yl)benzoic acid]"
3,0.0263,"O=C(O)c1ccc(-c2nn(S(=O)(=O)c3cccc(Cl)c3Cl)c3ccccc23)cc1 [Example 13E, 4-(1-(2,3-dichlorophenylsulfonyl)-1H-indazol-3-yl)benzoic acid]"
4,0.166,"O=C(O)c1ccc(-c2nn(S(=O)(=O)c3ccc(Cl)c(Cl)c3Cl)c3ccccc23)cc1 [Example 13F, 4-(1-(2,3,4-trichlorophenylsulfonyl)-1H-indazol-3-yl)benzoic acid]"
5,1.95,"N#Cc1ccccc1S(=O)(=O)n1nc(-c2ccc(C(=O)O)cc2)c2ccccc21 [Example 14, 4-(1-(2-cyanophenylsulfonyl)-1H-indazol-3-yl)benzoic acid]"
6,0.275,"O=C(O)c1ccc(-c2nn(S(=O)(=O)c3ccccc3OC(F)(F)F)c3ccccc23)cc1 [Example 15A, 4-(1-(2-(trifluoromethoxy)phenylsulfonyl)-1H-indazol-3-yl)benzoic acid]"
7,0.182,"O=C(O)c1ccc(-c2nn(S(=O)(=O)c3cccc4ccccc34)c3ccccc23)cc1 [Example 15B, 4-(1-(naphthalen-1-ylsulfonyl)-1H-indazol-3-yl)benzoic acid]"
8,4.47,"O=C(O)c1ccc(-c2nn(S(=O)(=O)c3cccc4nonc34)c3ccccc23)cc1 [Example 15D, 4-(1-(benzo[c][1,2,5]oxadiazol-4-ylsulfonyl)-1H-indazol-3-yl)benzoic acid]"
9,0.513,"Cc1ccc(C#N)c(S(=O)(=O)n2nc(-c3ccc(C(=O)O)cc3)c3ccccc32)c1 [Example 15E, 4-(1-(2-cyano-5-methylphenylsulfonyl)-1H-indazol-3-yl)benzoic acid]"
10,0.955,"O=C(O)c1ccc(-c2nn(S(=O)(=O)c3ccccc3Cl)c3ccncc23)cc1 [Example 16, 4-(1-(2-chlorophenylsulfonyl)-1H-pyrazolo[4,3-c]pyridin-3-yl)benzoic acid]"
11,1.23,"Cc1cc(C)cc(S(=O)(=O)n2nc(-c3ccc(C(=O)O)cc3F)c3ccccc32)c1 [Example 17, 4-(1-(3,5-dimethylphenylsulfonyl)-1H-indazol-3-yl)-3-fluorobenzoic acid]"
12,3.31,"Cc1cc(C)cc(S(=O)(=O)n2nc(-c3ccc(C(=O)O)c(C(F)(F)F)c3)c3ccccc32)c1 [Example 18, 4-(1-(3,5-dimethylphenylsulfonyl)-1H-indazol-3-yl)-2-(trifluoromethyl)benzoic acid]"
13,3.55,"O=S(=O)(c1cccc(Cl)c1)n1nc(-c2ccc(-c3nnn[nH]3)cc2)c2ccccc21 [Example 20, 3-(4-(1H-tetrazol-5-yl)phenyl)-1-(3-chlorophenylsulfonyl)-1H-indazole]"
14,0.389,"COC(=O)c1sccc1S(=O)(=O)n1nc(-c2ccc(-c3nnn[nH]3)cc2)c2ccccc21 [Example 21A, methyl 3-(3-(4-(1H-tetrazol-5-yl)phenyl)-1H-indazol-1-ylsulfonyl)thiophene-2-carboxylate]"
15,0.575,"O=S(=O)(c1ccc(F)cc1Br)n1nc(-c2ccc(-c3nnn[nH]3)cc2)c2ccccc21 [Example 21B, 3-(4-(1H-tetrazol-5-yl)phenyl)-1-(2-bromo-4-fluorophenylsulfonyl)-1H-indazole]"
16,0.617,"O=S(=O)(c1sc(Cl)cc1Br)n1nc(-c2ccc(-c3nnn[nH]3)cc2)c2ccccc21 [Example 21C, 3-(4-(1H-tetrazol-5-yl)phenyl)-1-(3-bromo-5-chlorothiophen-2-ylsulfonyl)-1H-indazole]"
17,0.741,"Cc1noc(C)c1S(=O)(=O)n1nc(-c2ccc(-c3nnn[nH]3)cc2)c2ccccc21 [Example 21D, 4-(3-(4-(1H-tetrazol-5-yl)phenyl)-1H-indazol-1-ylsulfonyl)-3,5-dimethylisoxazole]"
18,5.01,"O=C(c1c(Cl)cccc1Cl)n1nc(-c2ccc(-c3nnn[nH]3)cc2)c2ccccc21 [Example 22, (3-(4-(1H-tetrazol-5-yl)phenyl)-1H-indazol-1-yl)(2,6-dichlorophenyl)methanone]"
19,1.02,"O=C(c1cccc(Cl)c1Cl)n1nc(-c2ccc(-c3nnn[nH]3)cc2)c2ccccc21 [Example 23, (3-(4-(1H-tetrazol-5-yl)phenyl)-1H-indazol-1-yl)(2,3-dichlorophenyl)methanone]"
